What was measured:
A3G-Luc = A3G-Luc luciferase screen in 293T cells stably expressing A3G-Luc; type: cell-based, human; conditions: 10 μM, 48 hrs, DMSO = 100%
Description: This background led to construction of cell lines to use in a search for compounds that might boost levels of A3s in the HIV target cells of the majority of HIV-infected persons who are non-controllers. The goal is to test a strategy of using such a booster in acute/early infection to prevent the hypothesized decrease of A3G and related A3s in an effort to increase “control” in persons lacking HLA B57/27-associated control. […] 293T and TZM-bl cells were maintained in DMEM (containing 4.5 g/liter glucose, L-glutamine, and sodium pyruvate) medium plus 10% fetal bovine serum, 50 IU/ml penicillin, and 50 μg/ml streptomycin at 37° C. and 5% CO2 throughout the experiments. […]. After collecting viral supernatant, 293T cells were infected with viral particles harboring the A3G-Luc expressing vector and selected with puromycin (0.75 μg/ml) for three days. Ten single cell clones of stable cells were isolated and tested for expression of A3G-Luc protein by both immunoblotting using antibody against A3G and measuring luciferase activity. Expressions in cell lines used for subsequent experiments are depicted in FIG. 2, upper panel. The A3G-Luc fusion protein was sensitive to Vif-mediated degradation (FIG. 3). Similar cells lines stably expressing A3F were constructed with the same methods (not shown).
To screen compounds that can boost A3G levels, 293T cells (25,000 cells per well in 96-well plate) stably expressing A3G-Luc protein or A3G-Luc/Vif proteins were plated. […] After 48 hrs of incubation with compounds culture medium was removed from each well and replaced with 100 μl of Britelite Plus luciferase assay substrate (PerkinElmer). Following 5 min. of incubation at room temperature, 75 μl of each cell lysate was transferred to a 96-well OptiPlate 96 (PerkinElmer) and luminescence was measured in a VICTOR X2 Multilabel Reader (PerkinElmer). Relative activity of compounds for their boosting capability A3G-Luc activity was calculated by plotting DMSO-treated A3G-Luc or A3G-Luc/Vif cells as 100%. Cellular cytotoxicity was measured by counting number of cells after 48 hrs of incubation with compounds compared to DMSO treated cells.

A3G-Luc/Vif = A3G-Luc/Vif luciferase screen in 293T cells stably co-expressing A3G-Luc and HIV-1 Vif; type: cell-based, human; conditions: 10 μM, 48 hrs, DMSO = 100%
Experimental: FIG. 6. 293T cell clone #6 stably co-expressing A3G-Luciferase fusion protein together with HIV-1 Vif was used. Small molecule compounds were tested for their effects on stability of A3G and inhibition of Vif activity against A3G by measuring luciferase activity, relative to treatment with control DMSO only. The relative % luciferase activity was higher after treatment with NU compounds than DMSO.
[…]. After sorting, expression of both A3G-Luc and Vif was confirmed by immunoblotting using antibody against both A3G and Vif.
To screen compounds that can boost A3G levels, 293T cells (25,000 cells per well in 96-well plate) stably expressing A3G-Luc protein or A3G-Luc/Vif proteins were plated. After 24 hrs post plating culture medium was replaced with 100 μl of new medium containing either DMSO as a control or various compounds (10 μM concentration). After 48 hrs of incubation with compounds culture medium was removed from each well and replaced with 100 μl of Britelite Plus luciferase assay substrate (PerkinElmer). Following 5 min. of incubation at room temperature, 75 μl of each cell lysate was transferred to a 96-well OptiPlate 96 (PerkinElmer) and luminescence was measured in a VICTOR X2 Multilabel Reader (PerkinElmer). Relative activity of compounds for their boosting capability A3G-Luc activity was calculated by plotting DMSO-treated A3G-Luc or A3G-Luc/Vif cells as 100%. Cellular cytotoxicity was measured by counting number of cells after 48 hrs of incubation with compounds compared to DMSO treated cells.

Wild-type HIV-1 = test: A3G-mediated restriction of wild-type HIV-1; virus from 293T stably expressing A3G, TZM-bl readout; type: cell-based; conditions: Human immunodeficiency virus 1, HEK-293T, read-out: A3G-mediated Restriction by Compounds on Wild-type HIV-1 (% of HIV replication relative to DMSO treated Control)
Experimental: To test the effect of compounds shown to boost A3G-Luc levels in our screening systems on inhibition of wild-type HIV-1 replication by A3G or A3F, 293T cell lines stably expressing A3G or A3F were plated (750,000 cells per well in 6-well plate). At 24 hrs post plating, 1.5 μg of a wild-type (Vif-positive) HIV-1 proviral vector, NL4.3, was transfected into the 293T stable cell lines expressing either A3G or A3F. At 4 hrs post transfection, either DMSO as a control or an individual compound from series described below was added into the culture medium at a 10 μM concentration. At 1 day post transfection, supernatant fluids containing viral particles were filtered through […] filter to remove cellular debris. To test the effect of compound on HIV-1 replication, TZM-bl indicator cells were plated at a density of 10,000 cells/well in a 96 well culture plate 24 hrs prior to infection. TZM-bl indicator cells express luciferase gene under the control of HIV LTR promoter and are routinely used to measure HIV-1 replication capability. On the day of infection, the culture medium was removed and the cells inoculated with equal amount of HIV-1 particles in triplicate with 100 μl of viral supernatants in culture medium containing 20 μg/ml DEAE-dextran. After 24 hrs of incubation, culture medium was removed from each well and replaced with 100 μl of Britelite Plus luciferase assay substrate. Following 5 min. of incubation at room temperature, 75 μl of each cell lysate was transferred to a 96-well OptiPlate 96 and luminescence was measured in a VICTOR X2 Multilabel Reader as described above. Relative infectivity was calculated by plotting luciferase activity from viral particle from DMSO treated A3G or A3F cell lines as 100%. We only tested effect A3F- or A3G mediated restriction of HIV-1 replication by compounds boosting luciferase activity by more than 160% compared to DMSO control sample.

Structure (SMILES) | A3G-Luc Activity (% of Relative Light Units compared to DMSO treated control) (A3G-Luc) | Vif-A3G-Luc Activity (% of RLUs compared to DMSO treated control) (A3G-Luc/Vif) | activity at 10 µM (Wild-type HIV-1)
COc1ccc(C(=O)NCc2ccc(F)cc2)cc1NC(=O)C(C)C [NU-567] | 93% | 76% | 
CCCCOc1ccc(C(=O)Nc2ccc(Cl)c(Cl)c2)cc1NC(=O)CC1CC1 [NU-615] | 102% | 105% | 
COc1ccc(C(=O)Nc2ccc(Cl)c(Cl)c2)cc1NS(=O)(=O)C1CC1 [NU-469] | 100% | 82% | 
COc1ccc(C(=O)Nc2ccc(Cl)c(Cl)c2)cc1NC(=O)OC(C)C [NU-461] | 124% | 70% | 
COc1ccc(C(=O)Nc2ccc(Cl)c(Cl)c2)cc1NC(=O)CC(C)(C)C [NU-474] | 105% | 71% | 
COc1ccc(C(=O)Nc2ccc(Cl)c(Cl)c2)cc1NC(=O)C1CC1 [NU-304] | 124% | 138% | 
O=C(CCCCC1SC[C@@H]2NC(=O)N[C@H]12)NCCOCCOc1ccc(C(=O)Nc2ccc(Cl)c(Cl)c2)cc1NC(=O)CC1CC1 (stereo partly shown) [NU-128] | 141% |  | 62%
COc1ccc(C(=O)NCc2ccccc2)cc1NC(=O)C(C)C [NU-566] | 106% | 80% | 
COc1ccc(C(=O)Nc2ccc(Cl)c(Cl)c2)cc1NC(=O)c1cccnc1 [NU-307] | 102% | 91% | 
COc1ccc(C(=O)Nc2ccc(Cl)c(Cl)c2)cc1NC(=O)N1CCCCC1 [NU-473] | 110% | 84% | 
COc1ccc(C(=O)Nc2ccc(Cl)c(Cl)c2)cc1NC(=O)CC1CCCC1 [NU-453] | 169% | 95% | 
COc1ccc(C(=O)NC2CCCCC2)cc1NC(=O)C(C)C [NU-573] | 117% | 80% | 
COc1ccc(C(=O)Nc2ccc(Cl)c(Cl)c2)cc1NC(=O)c1ccccc1 [NU-309] | 100% | 94% | 
COc1ccc(C(=O)Nc2ccc(Cl)c(Cl)c2)cc1NC(=O)c1ccncc1 [NU-306] | 96% | 84% | 
COc1ccc(C(=O)Nc2ccc(Cl)c(Cl)c2)cc1NC(=O)C1CCOCC1 [NU-305] | 121% | 109% | 
COc1ccc(C(=O)Nc2ccc(Cl)c(Cl)c2)cc1NS(=O)(=O)C1CCC1 [NU-470] | 100% | 85% | 

Structure (SMILES) | A3G-Luc Activity (% of Relative Light Units compared to DMSO treated control) (A3G-Luc) | Vif-A3G-Luc Activity (% of RLUs compared to DMSO treated control) (A3G-Luc/Vif) | activity at 10 µM (Wild-type HIV-1)
COc1ccc(C(=O)Nc2ccc(F)c(F)c2)cc1NC(=O)C(C)C [NU-571] | 116% | 104% | 
CCC(C)C(=O)Nc1cc(C(=O)Nc2ccc(Cl)c(Cl)c2)ccc1OC (stereo not shown) [NU-456] | 148% | 113% | 
COc1ccc(C(=O)Nc2ccc(Cl)c(Cl)c2)cc1NC(=O)C1CCCC1 [NU-455] | 188% | 131% | 
CCC(C)(C)C(=O)Nc1cc(C(=O)Nc2ccc(Cl)c(Cl)c2)ccc1OC [NU-457] | 120% | 93% | 
CCCCOc1ccc(C(=O)Nc2ccc(Cl)c(Cl)c2)cc1NC(=O)C1CCC1 [NU-614] | 96% | 99% | 
COc1ccc(C(=O)N2CCc3ccccc3C2)cc1NC(=O)C(C)C [NU-570] | 96% | 87% | 
COc1ccc(C(=O)Nc2ccc(Cl)c(Cl)c2)cc1NC(=O)Cc1ccccc1 [NU-308] | 92% | 113% | 
COc1ccc(CNC(=O)c2ccc(OC)c(NC(=O)C(C)C)c2)cc1 [NU-568] | 96% | 87% | 
COc1ccc(C(=O)Nc2ccc(Cl)c(Cl)c2)cc1NC(=O)CC1CCCCC1 [NU-454] | 86% | 84% | 
COc1ccc(C(=O)Nc2ccc3c(c2)OCO3)cc1NC(=O)C(C)C [NU-50] | 115% | 145% | 
COc1ccc(C(=O)Nc2ccc(Cl)c(Cl)c2)cc1NC(=O)C1C2CC3CC(C2)CC1C3 (stereo not shown) [NU-459] | 106% | 69% | 
COc1ccc(C(=O)Nc2ccc(Cl)c(Cl)c2)cc1NC(=O)CC(C)C [NU-452] | 140% | 110% | 
COc1ccc(C(=O)Nc2ccncc2)cc1NC(=O)C(C)C [NU-565] | 66% | 55% | 
COc1ccc(C(=O)Nc2ccc(Cl)c(Cl)c2)cc1NC(=O)c1ccc2c(c1)OCO2 [NU-303] | 90% | 71% | 
COc1ccc(C(=O)NCc2ccncc2)cc1NC(=O)C(C)C [NU-569] | 98% | 85% | 
COc1ccc(C(=O)Nc2ccc(OC)c(OC)c2)cc1NC(=O)C(C)C [NU-572] | 98% | 91% | 

Source: patent US9688637B2, “3-amidobenzamides and uses thereof for increasing cellular levels of A3G and other A3 family members” (Northwestern University, priority 2014, dated 2017)
